From patent US9758524B2, “4-imidazopyridazin-1-yl-benzamides as Btk inhibitors” (Merck Sharp & Dohme B.V., priority 2011, dated 2017)
Like-named read-outs stand apart in the source and are kept apart here.

Experiments:
FynT enzyme = FynT enzyme (Homo sapiens (Human), UniProt P06241); test: FynT enzyme activity (IMAP fluorescence polarization assay); assay type: biochemical; conditions: 60 min pre-incubation, 0.2 μM ATP
Summary of the method: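 Human FynT pre-incubated with compounds 60 min at room temperature, then reacted 2 h at room temperature with fluorescein-labelled p34cdc2 peptide (100 nM final). Stopped with IMAP binding solution; fluorescence polarization read after 60 min. Activity as % of ±ATP control difference; EC50 by curve fitting.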

Btk enzyme (His-Btk) = Btk enzyme (His-Btk) (Homo sapiens (Human), UniProt Q06187); test: Btk enzyme activity (IMAP fluorescence polarization assay)
Lck enzyme = Lck enzyme (Homo sapiens (Human), UniProt P06239); test: Lck enzyme activity (IMAP fluorescence polarization assay); conditions: read-out: EC50 Lck activity values; IMAP, 60 min pre-incubation, 6 μM ATP; bin bound in μM
Src enzyme = Src enzyme (Homo sapiens (Human), UniProt P12931); test: Src enzyme activity (IMAP fluorescence polarization assay); conditions: read-out: EC50 Src activity values; IMAP, 60 min pre-incubation, 4 μM ATP
Lyn enzyme = Lyn enzyme (Homo sapiens (Human), UniProt P07948); test: Lyn enzyme activity (IMAP fluorescence polarization assay); conditions: read-out: EC50 Lyn activity values, 60 min pre-incubation, 2 μM ATP, bin bound in μM
[1] = read-out: EC50 Btk activity values, IMAP, 60 min pre-incubation, 5 μM ATP, bin bound in nM
[2] = IMAP, 60 min pre-incubation, 5 μM ATP, bin bound in μM
[3] = IMAP, 60 min pre-incubation, 5 μM ATP, bin bound in nM

Chain of Btk enzyme (His-Btk) (Q06187 whole entry): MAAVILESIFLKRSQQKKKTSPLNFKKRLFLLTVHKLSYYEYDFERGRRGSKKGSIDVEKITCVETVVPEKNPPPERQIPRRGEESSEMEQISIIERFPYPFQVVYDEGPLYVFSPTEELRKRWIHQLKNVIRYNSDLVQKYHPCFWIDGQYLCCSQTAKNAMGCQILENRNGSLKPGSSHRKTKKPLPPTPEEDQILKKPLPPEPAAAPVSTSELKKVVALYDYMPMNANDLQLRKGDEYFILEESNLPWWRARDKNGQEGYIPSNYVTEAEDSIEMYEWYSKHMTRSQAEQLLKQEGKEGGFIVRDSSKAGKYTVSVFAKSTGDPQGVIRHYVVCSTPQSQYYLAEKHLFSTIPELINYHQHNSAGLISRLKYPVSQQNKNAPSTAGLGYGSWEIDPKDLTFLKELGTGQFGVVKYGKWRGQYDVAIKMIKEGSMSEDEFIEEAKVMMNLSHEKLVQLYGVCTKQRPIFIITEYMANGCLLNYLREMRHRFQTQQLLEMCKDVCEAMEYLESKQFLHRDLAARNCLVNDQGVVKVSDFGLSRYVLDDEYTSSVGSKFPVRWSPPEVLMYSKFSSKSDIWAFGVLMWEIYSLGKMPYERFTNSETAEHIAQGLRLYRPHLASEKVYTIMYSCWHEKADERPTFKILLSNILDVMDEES
Chain of Src enzyme (P12931 whole entry, looked up): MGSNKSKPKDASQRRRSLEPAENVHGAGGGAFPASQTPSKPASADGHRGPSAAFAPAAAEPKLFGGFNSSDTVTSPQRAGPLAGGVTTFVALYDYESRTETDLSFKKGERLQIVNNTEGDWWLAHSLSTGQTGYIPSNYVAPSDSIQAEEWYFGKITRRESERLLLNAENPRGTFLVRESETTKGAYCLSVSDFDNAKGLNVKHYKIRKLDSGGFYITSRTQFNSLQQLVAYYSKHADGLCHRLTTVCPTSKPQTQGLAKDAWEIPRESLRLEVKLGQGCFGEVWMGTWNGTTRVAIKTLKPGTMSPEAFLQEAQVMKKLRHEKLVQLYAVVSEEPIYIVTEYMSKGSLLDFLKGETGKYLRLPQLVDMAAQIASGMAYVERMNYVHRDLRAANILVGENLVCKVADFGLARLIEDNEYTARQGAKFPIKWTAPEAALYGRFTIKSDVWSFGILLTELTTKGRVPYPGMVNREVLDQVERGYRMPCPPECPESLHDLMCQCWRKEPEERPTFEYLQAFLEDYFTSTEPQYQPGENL
Chain of FynT enzyme (P06241 other isoform, or with tags, fused parts or gaps): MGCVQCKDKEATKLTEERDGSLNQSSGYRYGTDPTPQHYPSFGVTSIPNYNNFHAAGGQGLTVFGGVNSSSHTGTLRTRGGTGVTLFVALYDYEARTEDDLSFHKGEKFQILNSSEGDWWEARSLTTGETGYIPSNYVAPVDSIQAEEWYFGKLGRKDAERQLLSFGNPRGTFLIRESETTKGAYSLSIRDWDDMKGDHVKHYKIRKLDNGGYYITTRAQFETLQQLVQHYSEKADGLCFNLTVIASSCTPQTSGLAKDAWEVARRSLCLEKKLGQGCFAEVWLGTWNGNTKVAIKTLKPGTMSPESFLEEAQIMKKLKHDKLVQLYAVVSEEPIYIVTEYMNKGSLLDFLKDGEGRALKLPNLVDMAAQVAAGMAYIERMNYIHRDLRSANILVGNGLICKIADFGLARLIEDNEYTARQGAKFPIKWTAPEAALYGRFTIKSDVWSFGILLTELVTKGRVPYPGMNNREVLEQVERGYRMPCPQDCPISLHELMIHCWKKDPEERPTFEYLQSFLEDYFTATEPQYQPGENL
Chain of Lck enzyme (P06239 whole entry): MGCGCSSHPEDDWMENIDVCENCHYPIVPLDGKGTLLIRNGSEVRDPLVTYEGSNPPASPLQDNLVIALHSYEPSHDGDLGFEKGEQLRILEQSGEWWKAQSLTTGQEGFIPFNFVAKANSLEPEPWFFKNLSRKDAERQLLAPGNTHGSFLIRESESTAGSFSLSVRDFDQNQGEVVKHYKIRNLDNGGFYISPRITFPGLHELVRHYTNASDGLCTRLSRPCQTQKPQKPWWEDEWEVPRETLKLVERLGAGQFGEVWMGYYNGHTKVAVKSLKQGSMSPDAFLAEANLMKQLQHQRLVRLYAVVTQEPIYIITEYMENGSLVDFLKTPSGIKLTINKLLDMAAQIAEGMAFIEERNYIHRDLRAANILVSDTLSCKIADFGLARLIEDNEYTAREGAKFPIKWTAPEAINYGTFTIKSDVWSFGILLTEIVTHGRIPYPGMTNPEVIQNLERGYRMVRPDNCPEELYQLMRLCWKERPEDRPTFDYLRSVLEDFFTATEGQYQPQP
Chain of Lyn enzyme (P07948 whole entry): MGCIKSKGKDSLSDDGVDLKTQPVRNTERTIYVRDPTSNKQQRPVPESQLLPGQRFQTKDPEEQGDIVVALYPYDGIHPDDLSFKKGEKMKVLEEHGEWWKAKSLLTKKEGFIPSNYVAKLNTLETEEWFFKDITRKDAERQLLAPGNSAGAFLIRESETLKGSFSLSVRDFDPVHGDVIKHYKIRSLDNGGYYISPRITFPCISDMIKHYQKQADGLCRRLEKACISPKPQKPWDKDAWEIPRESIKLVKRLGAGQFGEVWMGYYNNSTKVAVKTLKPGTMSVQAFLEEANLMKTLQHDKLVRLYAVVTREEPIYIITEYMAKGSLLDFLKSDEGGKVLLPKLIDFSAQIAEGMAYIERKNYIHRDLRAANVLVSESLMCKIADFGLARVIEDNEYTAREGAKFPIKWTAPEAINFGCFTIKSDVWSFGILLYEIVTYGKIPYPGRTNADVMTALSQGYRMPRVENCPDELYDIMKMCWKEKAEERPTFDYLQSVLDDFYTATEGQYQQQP

EC50 (FynT enzyme)	EC50 (Btk enzyme (His-Btk); [1])	EC50 (Lck enzyme)	EC50 (Src enzyme)	EC50 (Lyn enzyme)	EC50 (Btk enzyme (His-Btk))	EC50 Btk activity values (Btk enzyme (His-Btk); [2])	EC50 Btk activity values (Btk enzyme (His-Btk); [3])	Compound
≥ 1 µM	< 10 nM	≥ 1 µM	≥ 1 µM	≥ 1 µM	–	–	–	CC#CC(=O)N1CCCC[C@H]1c1nc(-c2ccc(C(=O)Nc3cc(CCC)ccn3)c(F)c2)c2c(N)nccn12 [Example 67, (S)-4-(8-amino-3-(1-but-2-ynoylpiperidin-2-yl)imidazo[1,5-a]pyrazin-1-yl)-2-fluoro-N-(4-propylpyridin-2-yl)benzamide]
≥ 1 µM	–	≥ 1 µM	≥ 1 µM	≥ 1 µM	100 to 1000 nM	<1 µM	–	COC/C=C/C(=O)N1CCCC[C@H]1c1nc(-c2ccc(C(=O)Nc3ncccn3)cc2)c2c(N)nccn12 [Example 55, (S,E)-4-(8-amino-3-(1-(4-methoxybut-2-enoyl)piperidin-2-yl)imidazo[1,5-a]pyrazin-1-yl)-N-(pyrimidin-2-yl)benzamide]
≥ 1 µM	< 10 nM	≥ 1 µM	≥ 1 µM	≥ 1 µM	–	–	–	CC#CC(=O)N1CCCC[C@H]1c1nc(-c2ccc(C(=O)Nc3cc(C(F)(F)F)ccn3)cc2)c2c(N)nccn12 [Example 63, (S)-4-(8-amino-3-(1-but-2-ynoylpiperidin-2-yl)imidazo[1,5-a]pyrazin-1-yl)-N-(4-(trifluoromethyl)pyridin-2-yl)benzamide]
≥ 1 µM	< 10 nM	≥ 1 µM	≥ 1 µM	≥ 1 µM	–	–	–	CC#CC(=O)N1CCCC[C@H]1c1nc(-c2ccc(C(=O)Nc3ccncn3)cc2)c2c(N)nccn12 [Example 22, (S)-4-(8-Amino-3-(1-but-2-ynoylpiperidin-2-yl)imidazo[1,5-a]pyrazin-1-yl)-N-(pyrimidin-4-yl)benzamide]
≥ 1 µM	–	≥ 1 µM	≥ 1 µM	≥ 1 µM	10 to 100 nM	–	<0.1 µM	CN(C)C/C=C/C(=O)N1CCCC[C@H]1c1nc(-c2ccc(C(=O)Nc3cccnn3)cc2)c2c(N)nccn12 [Example 73, (S,E)-4-(8-amino-3-(1-(4-(dimethylamino)but-2-enoyl)piperidin-2-yl)imidazo[1,5-a]pyrazin-1-yl)-N-(pyridazin-3-yl)benzamide]
≥ 1 µM	–	≥ 1 µM	≥ 1 µM	≥ 1 µM	10 to 100 nM	–	<0.1 µM	COc1cc(-c2nc([C@@H]3CCCN3C(=O)c3ccnc(Cl)n3)n3ccnc(N)c23)ccc1C(=O)Nc1ccccn1 [Example 83, (S)-4-(8-amino-3-(1-(2-chloropyrimidine-4-carbonyl)pyrrolidin-2-yl)imidazo[1,5-a]pyrazin-1-yl)-2-methoxy-N-(pyridin-2-yl)benzamide]
≥ 1 µM	–	≥ 1 µM	≥ 1 µM	≥ 1 µM	10 to 100 nM	–	<0.1 µM	CC(C)c1ccnc(NC(=O)c2ccc(-c3nc([C@@H]4CCCN4C(=O)c4ccnc(Cl)n4)n4ccnc(N)c34)cc2)c1 [Example 70, (S)-4-(8-amino-3-(1-(2-chloropyrimidine-4-carbonyl)pyrrolidin-2-yl)imidazo[1,5-a]pyrazin-1-yl)-N-(4-isopropylpyridin-2-yl)benzamide]
≥ 1 µM	< 10 nM	≥ 1 µM	≥ 1 µM	≥ 1 µM	–	–	–	C=CS(=O)(=O)N1CCCC[C@H]1c1nc(-c2ccc(C(=O)Nc3cc(C(F)(F)F)ccn3)cc2)c2c(N)nccn12 [Example 19, (S)-4-(8-Amino-3-(1-(vinylsulfonyl)piperidin-2-yl)imidazo[1,5-a]pyrazin-1-yl)-N-(4-(trifluoromethyl)pyridin-2-yl)benzamide]
≥ 1 µM	< 10 nM	≥ 1 µM	≥ 1 µM	≥ 1 µM	–	–	–	CN(C)C/C=C/C(=O)N1CCCC[C@H]1c1nc(-c2ccc(C(=O)Nc3ccccn3)cc2)c2c(N)nccn12 [Example 78, (S,E)-4-(8-amino-3-(1-(4-(dimethylamino)but-2-enoyl)piperidin-2-yl)imidazo[1,5-a]pyrazin-1-yl)-N-(pyridin-2-yl)benzamide]
≥ 1 µM	< 10 nM	≥ 1 µM	≥ 1 µM	≥ 1 µM	–	–	–	C=CC(=O)N1CCC[C@H]1c1nc(-c2ccc(C(=O)Nc3ccccn3)c(F)c2)c2c(N)nccn12 [Example 13, (S)-4-(3-(1-acryloylpyrrolidin-2-yl)-8-aminoimidazo[1,5-a]pyrazin-1-yl)-2-fluoro-N-(pyridin-2-yl)benzamide]
≥ 1 µM	< 10 nM	≥ 1 µM	≥ 1 µM	≥ 1 µM	–	–	–	CCCc1ccnc(NC(=O)c2ccc(-c3nc([C@@H]4CCCCN4C(=O)/C=C/CN(C)C)n4ccnc(N)c34)cc2OC)c1 [Example 27, (S,E)-4-(8-Amino-3-(1-(4-(dimethylamino)but-2-enoyl)piperidin-2-yl)imidazo[1,5-a]pyrazin-1-yl)-2-methoxy-N-(4-propylpyridin-2-yl)benzamide]
≥ 1 µM	< 10 nM	≥ 1 µM	≥ 1 µM	≥ 1 µM	–	–	–	C=CC(=O)N[C@@H](C)c1nc(-c2ccc(C(=O)Nc3ccccn3)cc2)c2c(N)nccn12 [Example 100, (S)-4-(3-(1-acrylamidoethyl)-8-aminoimidazo[1,5-a]pyrazin-1-yl)-N-(pyridin-2-yl)benzamide]
≥ 1 µM	–	≥ 1 µM	≥ 1 µM	≥ 1 µM	100 to 1000 nM	<1 µM	–	COC/C=C/C(=O)N1CCC[C@H]1c1nc(-c2ccc(C(=O)Nc3cc(F)ccn3)cc2)c2c(N)nccn12 [Example 53, (S,E)-4-(8-amino-3-(1-(4-methoxybut-2-enoyl)pyrrolidin-2-yl)imidazo[1,5-a]pyrazin-1-yl)-N-(4-fluoropyridin-2-yl)benzamide]
≥ 1 µM	< 10 nM	≥ 1 µM	≥ 1 µM	≥ 1 µM	–	–	–	CC#CC(=O)N1CCC[C@H]1c1nc(-c2ccc(C(=O)Nc3cc(C#N)ccn3)cc2)c2c(N)nccn12 [Example 130, (S)-4-(8-amino-3-(1-but-2-ynoylpyrrolidin-2-yl)imidazo[1,5-a]pyrazin-1-yl)-N-(4-cyanopyridin-2-yl)benzamide]
≥ 1 µM	–	≥ 1 µM	≥ 1 µM	≥ 1 µM	10 to 100 nM	–	<0.1 µM	CC#CC(=O)N1CCC[C@H]1c1nc(-c2ccc(C(=O)Nc3ccccn3)c(F)c2)c2c(N)nccn12 [Example 50, (S)-4-(8-amino-3-(1-but-2-ynoylpyrrolidin-2-yl)imidazo[1,5-a]pyrazin-1-yl)-2-fluoro-N-(pyridin-2-yl)benzamide]
≥ 1 µM	–	≥ 1 µM	≥ 1 µM	≥ 1 µM	10 to 100 nM	–	<0.1 µM	CC#CC(=O)N1CCC[C@H]1c1nc(-c2ccc(C(=O)Nc3cc(F)ccn3)cc2)c2c(N)nccn12 [Example 106, (S)-4-(8-amino-3-(1-but-2-ynoylpyrrolidin-2-yl)imidazo[1,5-a]pyrazin-1-yl)-N-(4-fluoropyridin-2-yl)benzamide]
≥ 1 µM	–	≥ 1 µM	≥ 1 µM	≥ 1 µM	10 to 100 nM	–	<0.1 µM	CC#CC(=O)NCc1nc(-c2ccc(C(=O)Nc3ccccn3)cc2)c2c(N)nccn12 [Example 112, 4-(8-amino-3-(but-2-ynamidomethyl)imidazo[1,5-a]pyrazin-1-yl)-N-(pyridin-2-yl)benzamide]
≥ 1 µM	–	≥ 1 µM	≥ 1 µM	≥ 1 µM	10 to 100 nM	–	<0.1 µM	Nc1nccn2c([C@@H]3CCCN3C(=O)c3ccnc(Cl)n3)nc(-c3ccc(C(=O)Nc4nc5c(s4)CCCC5)cc3)c12 [Example 71, (S)-4-(8-amino-3-(1-(2-chloropyrimidine-4-carbonyl)pyrrolidin-2-yl)imidazo[1,5-a]pyrazin-1-yl)-N-(4,5,6,7-tetrahydrobenzo[d]thiazol-2-yl)benzamide]
≥ 1 µM	–	≥ 1 µM	≥ 1 µM	≥ 1 µM	10 to 100 nM	–	<0.1 µM	CCc1ccnc(NC(=O)c2ccc(-c3nc([C@@H]4CCCN4C(=O)/C=C/COC)n4ccnc(N)c34)cc2)c1 [Example 11, (S,E)-4-(8-Amino-3-(1-(4-methoxybut-2-enoyl)pyrrolidin-2-yl)imidazo[1,5-a]pyrazin-1-yl)-N-(4-ethylpyridin-2-yl)benzamide]
≥ 1 µM	< 10 nM	≥ 1 µM	≥ 1 µM	≥ 1 µM	–	–	–	C=CC(=O)N1CCCC[C@H]1c1nc(-c2ccc(C(=O)Nc3cc(C(F)(F)F)ccn3)cc2)c2c(N)nccn12 [Example 109, (S)-4-(3-(1-acryloylpiperidin-2-yl)-8-aminoimidazo[1,5-a]pyrazin-1-yl)-N-(4-(trifluoromethyl)pyridin-2-yl)benzamide]
